Measurements: US20250250251A1, “PIPERIDINYLPYRIDINYLCARBONITRILE DERIVATIVES AS INHIBITORS OF GLUTAMINYL-PEPTIDE CYCLOTRANSFERASE AND GLUTAMINYL-PEPTIDE CYCLOTRANSFERASE LIKE PROTEIN” (Boehringer Ingelheim International GmbH, priority 2024, published 2025)
Read-outs that look alike come from different tables or passages of the source.

How the values were obtained:
[1] = tested on: CACO-2 cells; test: Assay C: permeability in CACO-2 cells; type: in vitro ADME; details: pairs with and without 4-fluoropiperidyl, CACO2 cells
How it was run: (§1)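 Caco-2 monolayers were grown 10–25 days on porous filter inserts. Compound was applied to the apical or basolateral donor side for A-B or B-A transport (3 filters), and the receiver was sampled for up to 2 h. Quantitation was by HPLC-MS/MS or scintillation; efflux ratio = B-A/A-B permeability.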

[2] = target: T1, QPCT (Homo sapiens, UniProt Q16769); test: Assay A: biochemical QPCT activity assay (MALDI-TOF MS, CD47 peptide substrate); details: read-out: Inhibition of QPCT: IC50
T1 construct: purchased Origine (OriGene) TP700028
T1 sequence (Q16769 29-361): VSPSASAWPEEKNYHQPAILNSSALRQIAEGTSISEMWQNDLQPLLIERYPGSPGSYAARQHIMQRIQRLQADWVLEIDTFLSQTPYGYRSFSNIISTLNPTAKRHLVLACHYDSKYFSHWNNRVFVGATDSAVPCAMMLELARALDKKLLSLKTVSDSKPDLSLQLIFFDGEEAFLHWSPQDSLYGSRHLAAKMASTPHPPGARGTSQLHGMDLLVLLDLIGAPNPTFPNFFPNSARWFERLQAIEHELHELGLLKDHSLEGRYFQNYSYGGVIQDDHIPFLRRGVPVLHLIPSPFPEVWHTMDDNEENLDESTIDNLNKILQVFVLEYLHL
How it was run: (§2)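 Enzyme and compound pre-incubated 10 min at 24° C in 20 mM Tris pH 7.5 with TCEP, BSA, Tween20, then 40 min with CD47 peptide (10 μM for QPCTL, 20 μM for QPCT). Pyroglutamate product/internal standard ratio by MALDI-TOF MS, normalized to controls; four-parameter logistic fit.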

[3] = target: T2, QPCTL (Homo sapiens, UniProt Q9NXS2); test: Assay A: biochemical QPCTL activity assay (MALDI-TOF MS, CD47 peptide substrate); details: read-out: Inhibition of QPCTL: IC50
T2 construct: made in house
T2 sequence (Q9NXS2 whole entry, species assumed): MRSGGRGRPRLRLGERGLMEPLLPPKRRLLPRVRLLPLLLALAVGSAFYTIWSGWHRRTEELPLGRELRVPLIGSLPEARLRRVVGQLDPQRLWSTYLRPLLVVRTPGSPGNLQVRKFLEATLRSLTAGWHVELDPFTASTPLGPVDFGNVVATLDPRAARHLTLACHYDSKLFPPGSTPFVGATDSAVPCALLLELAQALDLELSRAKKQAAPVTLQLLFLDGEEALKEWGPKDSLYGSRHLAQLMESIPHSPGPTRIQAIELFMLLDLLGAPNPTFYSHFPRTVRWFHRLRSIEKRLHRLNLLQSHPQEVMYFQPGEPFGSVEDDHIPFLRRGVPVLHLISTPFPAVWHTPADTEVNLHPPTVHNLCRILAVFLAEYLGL
How it was run: as §2

[4] = tested on: murine hepatocytes; test: Assay E: stability in murine hepatocytes; type: in vitro ADME, mouse; details: 1 μM, 5% species serum
How it was run: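 Cryopreserved mouse hepatocytes, typically 1 Mio cells/mL in medium with 5% species serum, were dosed at 1 μM compound (0.05% DMSO) at 37 °C and sampled over 0–6 h. Parent decline was measured by HPLC-MS/MS and CLint calculated from dose/AUC, then scaled by well-stirred liver model.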

[5] = tested on: SIRPα signalling induced by Raji cells; test: Assay B: SIRPα signalling assay using Raji cells; type: cell-based; details: Homo sapiens, read-out: Inhibition of SIRPα signalling induced by Raji cells: IC50
How it was run: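 SIRPα signalling induced by Raji cells in a PathHunter reporter line, read as β-galactosidase complementation luminescence. Detection reagent 1 added for 15 min, then reagent 2 for 60 min in the dark, both at room temperature.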

[6] = tested on: SIRPα signalling induced by A549 cells; test: Assay B: SIRPα signalling assay using A549 cells; type: cell-based; details: Homo sapiens, read-out: Inhibition of SIRPα signalling induced by A549 cells: IC50
How it was run: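 Raji or A549 cells (5000/well) were each incubated with serially diluted compound for 48 h at 37 °C. Jurkat PathHunter SIRPαV1 reporter cells (15000/well) were then added for 5 h. Beta-galactosidase luminescence gave IC50 via a 4-parameter sigmoidal fit.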

[7] = Assay C: permeability in CACO-2 cells; type: in vitro ADME; details: human
How it was run: as §1

[8] = target: isolated QPCTL (Homo sapiens, UniProt Q9NXS2); details: as disclosed in WO 2024/020517; read-out: Inhibitory activity on isolated QPCTL, IC50; cited from earlier work
Chain of isolated QPCTL (Q9NXS2 whole entry): as the sequence (Q9NXS2 whole entry, species assumed) above

[9] = tested on: CYP3A4 mRNA; test: Assay D: CYP induction screening assay in primary human hepatocytes; type: in vitro ADME; details: 48 h
How it was run: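 Single-donor cryopreserved human hepatocytes on collagen with Matrigel overlay were exposed to test compound at […] (0.1% DMSO) for 48 h, medium renewed at 24 h. CYP3A4 mRNA quantified by QuantiGene Plex/Luminex, normalised to geometric mean of RPL32, EIF4E2, GUSB and expressed relative to solvent control.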

[10] = Caco-2, pH 7.2, read-out: Efflux Ratio
[11] = Caco-2, pH 7.2, pairs with and without 4-fluoropiperidyl, CACO2 cells, read-out: Efflux ratio (BA/AB)
[12] = Table 2, compounds of the invention
[13] = Table 4, compounds of the invention

## Cn1cnnc1C1(F)CCN(c2c(C#N)cc(Cl)cc2-c2ccc(F)nc2)CC1 [Example 18 in EP 23161417.3]
[1]
  CACO2 Perm.: 66.0 10^−6 cm/sec

## Cn1cnnc1C1CCN(c2c(C#N)cc(C(F)(F)F)nc2-c2cnc3nn(C(C)(C)C)c(Cl)c3c2)CC1
[1]
  CACO2 Perm.: 1.0 10^−6 cm/sec

## Cn1cnnc1C1CCN(c2c(C#N)cccc2-c2cnc3nn(C(C)(C)C)cc3c2)CC1 [Example 50 in EP 22216126.7]
[1]
  CACO2 Perm.: 0.5 10^−6 cm/sec

## Cn1cnnc1C1CCN(c2c(C#N)cc(F)cc2-c2ccc(F)nc2)CC1 [Compound 130 in WO 2024/020517]
[1]
  CACO2 Perm.: 24.0 10^−6 cm/sec

## Cn1cnnc1C1(F)CCN(c2c(C#N)cc(C(F)(F)F)nc2-c2cnc3nn(C(C)(C)C)c(C(F)(F)F)c3c2)CC1 [Example 4 in EP 23189886.7]
[1]
  CACO2 Perm.: 99.5 10^−6 cm/sec

## Cn1cc2c(-c3cccc(C#N)c3N3CCC(c4nncn4C)CC3)cncc2n1 [Compound 16, reference compound]
[2]; Table 3, prior art compounds
  IC50: 0.024 µM
[3]; Table 3, prior art compounds
  IC50: 0.01 µM
[4]; Table 13, prior art compounds
  Mouse Hepatocyte Stability QH: 61%
[5]; Table 5, prior art compounds
  IC50: 0.778 µM
[6]; Table 5, prior art compounds
  IC50: 0.396 µM
[7]; Caco-2, pH 7.2
  Papp A→B: < 6 nm/s
[7]; [10]
  efflux ratio: > 21.7
[8]
  IC50: < 0.1 µM
[9]; Table 10, prior art compounds
  n-fold induction of CYP3A4 at 10 μM: 1.5 n-fold

## COc1ccc(-c2cnc3nccn3c2)c(N2CCC(c3nncn3C)CC2)c1C#N [Compound 94, reference compound]
[2]; Table 3, prior art compounds
  IC50: 0.003 µM
[3]; Table 3, prior art compounds
  IC50: 0.001 µM
[4]; Table 13, prior art compounds
  Mouse Hepatocyte Stability QH: 30%
[5]; Table 5, prior art compounds
  IC50: 2.04 µM
[6]; Table 5, prior art compounds
  IC50: 1.3 µM
[7]; Caco-2, pH 7.2
  Papp A→B: < 14 nm/s
[7]; [10]
  efflux ratio: > 0.8
[8]
  IC50: < 0.1 µM
[9]; Table 10, prior art compounds
  n-fold induction of CYP3A4 at 10 μM: <1 n-fold

## Cn1cnnc1C1CCN(c2c(C#N)cccc2-c2cnc3nccn3c2)CC1 [Compound 93, reference compound]
[2]; Table 3, prior art compounds
  IC50: 0.005 µM
[3]; Table 3, prior art compounds
  IC50: 0.001 µM
[4]; Table 13, prior art compounds
  Mouse Hepatocyte Stability QH: 26%
[5]; Table 5, prior art compounds
  IC50: 1.38 µM
[6]; Table 5, prior art compounds
  IC50: 0.356 µM
[7]; Caco-2, pH 7.2
  Papp A→B: < 0.4 nm/s
[7]; [10]
  efflux ratio: > 40
[8]
  IC50: < 0.1 µM
[9]; Table 10, prior art compounds
  n-fold induction of CYP3A4 at 10 μM: 0.8 n-fold

## Cn1cnnc1C1(F)CCN(c2c(-c3cnc4nn(C(C)(C)C)cc4c3)ccc(C(F)(F)F)c2C#N)CC1 [Example 30 in EP 23161417.3]
[1]
  CACO2 Perm.: 1.7 10^−6 cm/sec

## Cn1cnnc1C1CCN(c2c(C#N)cccc2-c2ccc(F)nc2)CC1 [(1)/QP5020, reference compound]
[4]; Table 13, prior art compounds
  Mouse Hepatocyte Stability QH: 83%
[6]; Table 5, prior art compounds
  IC50: 0.008 µM
[1]
  CACO2 Perm.: 28.0 10^−6 cm/sec

## Cn1cnnc1C1CCN(c2c(C#N)ccnc2-c2ccc(F)nc2)CC1 [Compound 133 in WO 2024/020517]
[1]
  CACO2 Perm.: 4.8 10^−6 cm/sec

## Cn1cnnc1C1CCN(c2c(C#N)cc(Cl)cc2-c2ccc(F)nc2)CC1 [Compound 18 in WO 2024/020517]
[1]
  CACO2 Perm.: 23.0 10^−6 cm/sec

## Cn1cnnc1C1(F)CCN(c2c(-c3ccc(F)nc3)ccnc2C#N)CC1 [Example 10 in EP 22188580.9]
[1]
  CACO2 Perm.: 11.0 10^−6 cm/sec

## Cn1cnnc1C1(F)CCN(c2c(C#N)cccc2-c2ccnnc2)CC1 [Example 52 in EP 22216126.7]
[1]
  CACO2 Perm.: 15.0 10^−6 cm/sec

## Cn1cnnc1C1(F)CCN(c2c(C#N)cc(Cl)cc2-c2cnc3nn(C(C)(C)C)cc3c2)CC1 [Example 19 in EP 23161417.3]
[1]
  CACO2 Perm.: 18.0 10^−6 cm/sec

## Cn1cnnc1C1(F)CCN(c2c(C#N)cccc2-c2ccc(F)nc2)CC1 [Example 56 in EP 23161417.3]
[1]
  CACO2 Perm.: 50.0 10^−6 cm/sec

## Cn1cnnc1C1CCN(c2c(C#N)cccc2-c2cnc3[nH]nc(O)c3c2)CC1 [Compound 113, reference compound]
[2]; Table 3, prior art compounds
  IC50: 0.164 µM
[3]; Table 3, prior art compounds
  IC50: 0.149 µM
[4]; Table 13, prior art compounds
  Mouse Hepatocyte Stability QH: <12%
[5]; Table 5, prior art compounds
  IC50: > 10 µM
[6]; Table 5, prior art compounds
  IC50: 4.24 µM
[7]; Caco-2, pH 7.2
  Papp A→B: < 7.8 nm/s
[7]; [10]
  efflux ratio: > 5
[8]
  IC50: < 0.1 µM
[9]; Table 10, prior art compounds
  n-fold induction of CYP3A4 at 10 μM: <1 n-fold

## Cn1cnnc1C1(F)CCN(c2c(C#N)cc(F)cc2-c2cnc3nn(C(C)(C)C)c(C(F)(F)F)c3c2)CC1
[1]
  CACO2 Perm.: 51.0 10^−6 cm/sec
[7]; [11]
  efflux ratio: 0.8

## Cn1cnnc1C1(F)CCN(c2c(C#N)cc(C(F)(F)F)nc2-c2cnc3nn(C(C)(C)C)c(Cl)c3c2)CC1 [Example 3 in EP 23189886.7]
[1]
  CACO2 Perm.: 47.0 10^−6 cm/sec

## Cn1cnnc1C1(F)CCN(c2c(C#N)ccnc2-c2ccc(F)nc2)CC1 [Example 1 in EP 22188580.9]
[1]
  CACO2 Perm.: 28.0 10^−6 cm/sec

## Cn1cnnc1C1CCN(c2c(C#N)cc(Cl)cc2-c2cnc3nn(C(C)(C)C)cc3c2)CC1 [Example 17 in EP 23161417.3]
[1]
  CACO2 Perm.: 2.5 10^−6 cm/sec

## Cn1cnnc1C1(F)CCN(c2c(C#N)cc(C(F)(F)F)cc2-c2ccc(F)nc2)CC1 [Example 4 in EP 23161417.3]
[1]
  CACO2 Perm.: 40.5 10^−6 cm/sec

## Cn1cnnc1C1(F)CCN(c2c(C#N)cc(F)cc2-c2ccc(F)nc2)CC1 [Example 6 in EP 23161417.3]
[1]
  CACO2 Perm.: 44.0 10^−6 cm/sec

## Cn1cnnc1C1CCN(c2c(C#N)cc(C(F)(F)F)cc2-c2ccc(F)nc2)CC1 [Compound 70 in WO 2024/020517]
[1]
  CACO2 Perm.: 9.0 10^−6 cm/sec

## Cn1cnnc1C1CCN(c2c(C#N)cc(F)cc2-c2cnc3nn(C(C)(C)C)c(C(F)(F)F)c3c2)CC1
[1]
  CACO2 Perm.: 17.0 10^−6 cm/sec
[7]; [11]
  efflux ratio: 5.7

## Cn1cnnc1C1(F)CCN(c2c(C#N)cccc2-c2cnc3nn(C(C)(C)C)cc3c2)CC1 [Example 62 in EP 22216126.7]
[1]
  CACO2 Perm.: 4.9 10^−6 cm/sec

## Cn1cnnc1C1(F)CCN(c2c(C#N)cc(C3CC3)nc2-c2cnc3nn(C)c(C(F)(F)F)c3c2)CC1 [Example 11]
[2]; [12]
  IC50: 0.003 µM
[3]; [12]
  IC50: 0.003 µM
[4]; Table 12, compounds of the invention
  Mouse Hepatocyte Stability QH: 32%
[5]; [13]
  IC50: 0.167 µM
[6]; [13]
  IC50: 0.037 µM
[7]; pH 7.2, Table 7, compounds of the invention, CACO-2 cells
  Papp A→B: 320 nm/s
[7]; pH 7.2, Table 7, compounds of the invention, CACO-2 cells, permeability B-A/permeability A-B, read-out: Efflux Ratio
  efflux ratio: 2.5
[9]; Table 9, compounds of the invention
  n-fold induction of CYP3A4 at 10 μM: 5.0 n-fold

## Cn1cnnc1C1CCN(c2c(-c3cnc4nn(C(C)(C)C)cc4c3)ccc(C(F)(F)F)c2C#N)CC1 [Example 32 in EP 23161417.3]
[1]
  CACO2 Perm.: 0.2 10^−6 cm/sec

## Cn1cnnc1C1CCN(c2c(C#N)cc(C(F)(F)F)nc2-c2cnc3nn(C(C)(C)C)c(C(F)(F)F)c3c2)CC1 [Example 13 in EP 23189886.7]
[1]
  CACO2 Perm.: 3.7 10^−6 cm/sec

## Cn1cnnc1C1CCN(c2c(-c3ccc(F)nc3)ccnc2C#N)CC1 [Compound 132 in WO 2024/020517]
[1]
  CACO2 Perm.: 1.8 10^−6 cm/sec
